Where two headings read alike, the source gives them in different places.
What was measured:
Type in all cases: cell-based, human
[1] = test system: HUVEC cells; test: MTT assay, metabolic activity (cytotoxicity), normal cell line; details: Homo sapiens, HUVEC, 48 h incubation, mean ± SEM
Description: (§1) Metabolic activity by MTT assay
(§2) The MTT (3-([…])-2,5-diphenyl tetrazolium bromide) assay was performed to assess the cytotoxicity of the investigated compounds. Briefly, HL-60, MCF-7 and HUVEC cells were seeded in 24-well plates at density of 8 × 10^4/mL. After 24 h incubation, cells were treated with various concentrations of the compounds and incubated for another 24 h or 48 h. Then, the cells were incubated with MTT solution (100 µL; 5 mg/mL in PBS) for 1.5 h and centrifuged. The formazan product was dissolved in DMSO, and the absorption was measured using FlexStation 3 Multi-Mode Microplate Reader (Molecular Devices, LLC, San Jose, CA, USA) at 560 nm. Assays were performed twice in triplicate for each analog.
(§3) The cytotoxic activity of the obtained methylidenetetrahydropyran-4-ones was investigated in two cancer cell lines, human promyelocytic leukemia (HL-60) and breast cancer adenocarcinoma (MCF-7), and in healthy umbilical vein endothelial cells (HUVEC), for comparison. An anticancer drug, carboplatin, was used as a reference compound. Metabolic activity of the cells was assessed after 48 h incubation with various concentrations of the analogs (Table 6). Purity of all final compounds was determined on the basis of their ^1H NMR spectra (signal-to-noise ratio and presence of unidentified signals) and was at least 98%, in most cases even over 99%.

[2] = test system: HL-60 cells; test: MTT assay, metabolic activity (cytotoxicity); details: for IC50: MTT
Description: as §1, §2, §3

[3] = test system: MCF-7 cells; test: MTT assay, metabolic activity (cytotoxicity); details: Homo sapiens, MCF7, 48 h incubation, mean ± SEM
Description: as §1, §2, §3

[4] = test system: HL-60 cells; test: Cell morphology by light microscope; details: IC50 and 2IC50, 24 h
Description: HL-60 cells were treated with compound 13d or 13g at IC50 and 2IC50 for 24 h. Then, the cells were examined for morphological changes using a light microscope at 40x magnification and photographed.
HL-60 cells grow in suspension and usually have a roughly spherical shape.

[5] = Homo sapiens, HL-60, 24 h, 24 h incubation, read-out: IC50 HL-60 after 24 h incubation
[6] = Homo sapiens, HL-60, 48 h, 48 h incubation, mean ± SEM, read-out: IC50 HL-60

Row | Compound | IC50 [1] [µM] | IC50 ([2]; 48 h incubation, mean ± SEM, read-out: IC50 HL-60) [µM] | IC50 [2, 5] [µM] | IC50 [2, 6] [µM] | IC50 [3] [µM] | morphological changes of the cells [4] | selectivity, inhibitory activity in HL-60 versus HUVEC cells (cancer/healthy cell IC50 ratio) ([2]; HL-60 compared to normal HUVEC cells, 48 h)
1 | C=C1C(=O)C[C@H](c2ccccc2)O[C@H]1C(C)C (relative stereo) [Analog 13g, Trans-2-isopropyl-3-methylidene-6-phenyltetrahydro-4H-pyran-4-one] | 3.84 ± 0.01 | 3.69 ± 0.08 | 6.49 ± 0.31 | < 4 | 8.63 ± 0.07 | induced several morphological changes | 
2 | C=C1C(=O)C[C@H](C(C)C)O[C@H]1C(C)C (relative stereo) [Analog 13d, Trans-2,6-diisopropyl-3-methylidenetetrahydro-4H-pyran-4-one] | 24.7 ± 0.65 |  | 15.7 ± 0.61 | 7.65 ± 0.05 | 14 ± 1 | induced several morphological changes | over 3 fold
